Measurements: patent US9216165B2, “Combination of a statin and a taxane for the treatment of gastric cancer” (INSERM (Institut National de la Sante et de la Recherche …, priority 2011, dated 2015)

Legend:
[1] = test system: HGT-1 human gastric cancer cells; assay: Apoptosis by Hoechst 33342 staining in HGT-1 cells; assay type: cell-based; details: for apoptosis: HGT-1
Description: HGT-1 human gastric cancer cells were grown at 37° C. under a humidified atmosphere of 5% CO2 in DMEM (Dulbecco's modified Eagle's medium) (Lonza, Saint Beauzire, France), containing 4.5 g/L glucose and supplemented with 5% fetal bovine serum without antibiotics (Gibco-Invitrogen, Cergy Pontoise, France).
(§1) Apoptosis was determined by Hoechst 33342 (10 μg/ml in PBS) staining of the cells for 15 min at 37° C. and fluorescence microscopy analysis of 300 cells per condition, from replicate cultures.

HGT-1 cells [2] = assay: mRNA levels by quantitative real-time RT-PCR in HGT-1 cells; assay type: cell-based, human; details: 48 h
Description: Total RNA was isolated using Trizol (Invitrogen, Cergy-Pontoise, france) and the RNA samples were used for the first-strand cDNA synthesis with the High Capacity cDNA Reverse Transcription kit and random hexamer primers (Applied biosystems). Quantitative real-time RT-PCR was performed using the Power SYBR Green Kit (Applied biosystems) according to the manufacturer's instructions. mRNA levels were analyzed in duplicate, normalized against GAPDH or phospho-protein P0 as an internal control gene. The results are expressed as the relative gene expression using the ΔΔCt method (Livak and Schmittgen 2001). The primer sequences and reaction conditions will be provided upon request.

HGT-1 cells [3] = assay: Protein levels by western blotting in HGT-1 cells; assay type: cell-based, human
Description: (§2) The cells were harvested, washed in PBS and lysed in ripa buffer (50 mM Tris HCl pH7.4, 150 mM NaCl, 0.5% Sodium deoxycholate, 0.1% SDS, 1% NP40, 1 mM EDTA, 1 mM PMSF) containing protease inhibitor cocktail (Roche, Meylan, France) and phosphatase inhibitor (Active motif) for 10 min at 4° C. Sixty micrograms of proteins were boiled in Laemmli sample buffer (Bio-Rad) for 5 min, separated by SDS-PAGE using 12% or 15% polyacrylamide gels and blotted onto polyvinyl difluoride membranes (GE Healthcare). Non specific binding sites were blocked for 1 h at room temperature by 5% (wt/v) fat-free milk before overnight incubation at 4° C. with specific rabbit (or mouse for cyclin B1) anti-human antibodies: aurora kinase A and B, procaspase-3, PARP, Bcl-2, Bax and survivin (Cell Signaling Technology-Ozyme, Saint Quentin en Yvelines, France), p27, p21, Mcl-1, cyclin B1 (Santa Cruz biotechnology, Tebu-bio, le Perray en Yvelines, France), cyclin D1 (NeoMarkers, Thermo Fisher Scientific, Illkirch, France) or HSC70 (Abcam, Paris, France) as a loading control. Anti-phospho-ERK1/2 was a mouse monoclonal antibody against a synthetic phosphopeptide (residues around threonine 202 and […] of human p44 MAPK, Cell Signaling Technology, Ozyme, France). Polyclonal antibodies against ERK1 (rabbit, sc-94) or ERK2 (rabbit, sc-154) and phospho-MEK1/2 were from Santa Cruz Biotechnology (Tebu-bio). Rabbit anti-phospho-JNK (Cell Signaling, Saint-Quentin en Yvelines, France) and rabbit polyclonal antibody anti-P38 (Santa Cruz Biotechnology, Tebu-bio). Primary antibodies were detected with a horseradish peroxidase-conjugated IgGs (GE Healthcare, Orsay, France).

[4] = test system: lovastatin-resistant HGT-1-derived cells; assay: Apoptosis in lovastatin-resistant HGT-1-derived cells; assay type: cell-based, human; details: data not shown
Description: as §1

[5] = test system: docetaxel-resistant HGT-1 cells (D5)
Description: Selection of the docetaxel-resistant cell populations was performed with mass cultures grown in complete medium supplemented with 5 nM docetaxel. […] Cells were constantly grown in presence of 5 nM docetaxel, excepted for the cell passage that preceded the experiments that involved drug treatments. […]

D5 cells [6] = assay: Protein levels by western blotting in D5 cells; assay type: cell-based, human; details: 2.5 μM lovastatin, 72 h
Description: as §2, with “Polyclonal antibodies against ERK1 (rabbit, sc-94) or ERK2 (rabbit, sc-154) and phospho-MEK1/2 were from Santa Cruz Biotechnology (Tebu-bio). Rabbit anti-phospho-JNK (Cell Signaling, Saint-Quentin en Yvelines, France) and rabbit polyclonal antibody anti-P38 (Santa Cruz Biotechnology, Tebu-bio).” left out

D5 cells [7] = assay: p21 mRNA by RT-PCR in D5 cells; assay type: cell-based, human; details: data not shown
Description: Selection of the docetaxel-resistant cell populations was performed with mass cultures grown in complete medium supplemented with 5 nM docetaxel. […] Cells were constantly grown in presence of 5 nM docetaxel, excepted for the cell passage that preceded the experiments that involved drug treatments.

CC(=O)O[C@@]12CO[C@@H]1C[C@H](O)[C@@]1(C)C(=O)[C@H](O)C3=C(C)[C@@H](OC(=O)[C@H](O)[C@@H](NC(=O)OC(C)(C)C)c4ccccc4)C[C@@](O)([C@@H](OC(=O)c4ccccc4)[C@H]21)C3(C)C [docetaxel, Docetaxel] was tested. Which apoptosis ([1]; 5 nM docetaxel, 48 h) did it give?
Its apoptosis is 15%.

And the apoptosis ([1]; 10 nM docetaxel, 48 h)?
Its apoptosis is 27%.

What about the p21 expression (HGT-1 cells [2]; 5 or 10 nM docetaxel) of the same molecule?
The p21 expression was “induced”.

And the “aurora kinase B and survivin mRNA” value (HGT-1 cells [2])?
Its value is “weakly induced”.

What about the “phospho-MEK1/2, phospho-ERK1/2 and p38 MAP kinase levels” value (HGT-1 cells [3]) of the same molecule?
Its value is “had no effect”.

And the “phosphorylated jun kinase (JNK)” value (HGT-1 cells [3])?
The value was “had no effect”.

What about the Bax protein (HGT-1 cells [3]; 48 h) of the same molecule?
Its Bax protein is “remained unchanged”.

What about the “Caspase-3 and PARP cleavage” value (HGT-1 cells [3]; 48 h) of the same molecule?
Its value is “cleaved”.

And the Mcl-1 protein (HGT-1 cells [3]; 48 h)?
The Mcl-1 protein was “suppressed”.

What about the “cyclin B1, D1, aurora kinase A, B and survivin protein levels” value (HGT-1 cells [3]; 48 h) of the same molecule?
Its value is “decrease in these proteins”.

And the survivin protein levels (HGT-1 cells [3]; 48 h)?
The survivin protein levels was “strongly induced”.

What about the “cyclin B1 protein” value (HGT-1 cells [3]; docetaxel, 48 h) of the same molecule?
Its value is “slightly increased”.

What about the “apoptosis compared with HGT-1 parental cells” value [4] of the same molecule?
Its value is “higher level”.

With CC[C@H](C)C(=O)O[C@H]1C[C@@H](C)C=C2C=C[C@H](C)[C@H](CC[C@@H]3C[C@@H](O)CC(=O)O3)[C@H]21 [lovastatin] as the molecule, how does the apoptosis ([1]; 12.5 μM lovastatin, 48 h) read?
The apoptosis was 35%.

What about the apoptosis ([1]; 2.5 or 5 μM lovastatin, 48 or 72 h) of the same molecule?
The apoptosis was “up to 32%”.

And the apoptosis ([5]; 2.5 or 5 μM lovastatin, 48 or 72 h, D5 cells)?
The apoptosis was “up to 55%”.

What about the p27 expression (HGT-1 cells [2]; 12.5 μM lovastatin alone or with 5 or 10 nM docetaxel) of the same molecule?
Its p27 expression is “slightly reduced”.

What about the “p21 mRNA induction” value (HGT-1 cells [2]; 12.5 μM lovastatin) of the same molecule?
Its value is “up to 4 fold”.

And the “LDL-R, HMG-CoA reductase, FPPS and FAS mRNA levels” value (HGT-1 cells [2])?
The value was “induced”.

And the “aurora kinase B and survivin mRNA” value (HGT-1 cells [2])?
Its value is “repressed”.

What about the “cyclin B1, cyclin D1 and aurora kinase A mRNA” value (HGT-1 cells [2]) of the same molecule?
The value was “reduced expression of all transcripts”.

What about the “phospho-MEK1/2, phospho-ERK1/2 and p38 MAP kinase levels” value (HGT-1 cells [3]) of the same molecule?
Its value is “decreased”.

What about the “phosphorylated jun kinase (JNK)” value (HGT-1 cells [3]) of the same molecule?
Its value is “induced”.

And the Bax protein (HGT-1 cells [3]; 48 h)?
Its Bax protein is “slightly suppressed”.

What about the “Caspase-3 and PARP cleavage” value (HGT-1 cells [3]; 48 h) of the same molecule?
Its value is “cleaved”.

What about the Mcl-1 protein (HGT-1 cells [3]; 48 h) of the same molecule?
The Mcl-1 protein was “suppressed”.

And the “cyclin B1, D1, aurora kinase A, B and survivin protein levels” value (HGT-1 cells [3]; 48 h)?
The value was “decrease in all proteins”.

And the “over-expressed survivin and cyclin B1 proteins in D5 cells” value (D5 cells [6])?
The value was “fully suppressed”.

And the “p27 protein in D5 cells” value (D5 cells [6])?
Its value is “induced”.

What about the “induction of p21 mRNA in D5 cells compared with HGT-1” value (D5 cells [7]) of the same molecule?
The value was “stronger”.

How did the apoptosis ([1]; 1 nM vinblastine, 48 h) turn out when CC[C@]1(O)C[C@@H]2CN(CCc3c([nH]c4ccccc34)[C@@](C(=O)OC)(c3cc4c(cc3OC)N(C)[C@H]3[C@@](O)(C(=O)OC)[C@H](OC(C)=O)[C@]5(CC)C=CCN6CC[C@]43[C@@H]65)C2)C1 [vinblastine] was run?
The apoptosis was “about 30%”.

What about the “vinblastine-induced apoptosis in D5 cells” value ([5]; 1 nM vinblastine, 48 h) of the same molecule?
The value was “resistant”.

For Z-VAD-fmk, which “effect on docetaxel-induced cell death” value ([1]; HGT-1, with docetaxel) is on record?
The value was “suppress cell death”.
